Test results taken from article PMC7465109, “Discovery of Sulfated Small Molecule Inhibitors of Matrix Metalloproteinase-8” (Biomolecules, 2020).

Tests used:
[1] = molecular target: T1, MMP-9 (Homo sapiens, UniProt P14780); assay: MMP-9 inhibitor screening assay kit (Abcam #ab139448); type: biochemical; conditions: NSGM 100 µM; read-out: MMP-9 inhibition in screen
T1 construct: purchased Abcam (Cambridge, UK) ab139448
Experimental: Screening of sulfated benzofurans and quinazolinones (100 µM, final) against MMP-9 was performed using a commercially available assay kit (Abcam catalog #ab139448) following manufacturer’s protocol. All experiments were performed at least twice in duplicates.

[2] = molecular target: T2, MMP-8 (Homo sapiens, UniProt P22894); assay: Direct inhibition of MMP-8, fluorogenic substrate hydrolysis assay; type: biochemical; conditions: for IC50 / ΔY (efficacy of MMP-8 inhibition): Tris-buffered saline, 10 mM CaCl2, 1 µM ZnCl2, pH 7.5, 37 °C; for IC50: error ± 1 SD, read-out: IC50 (potency of MMP-8 inhibition); for ΔY (efficacy of MMP-8 inhibition): from dose-response regression
T2 construct: purchased R&D Systems (Minneapolis, MN, USA)
Experimental: NSGMs were screened for the inhibition of MMP-8 using a fluorogenic substrate assay, as described earlier. Briefly, 100 µg/mL pro-MMP-8 was activated by incubating with 1mM p-aminomercuric acetate at 37 °C for 1 hr. Activated MMP-8 (10 nM, final) was then incubated with NSGMs (100 µM, final) in Tris-buffered saline containing 10 mM CaCl2,1 µM ZnCl2, pH 7.5 for 10 min at 37 °C. Residual MMP-8 activity was measured by adding the fluorogenic substrate (DNP-Pro-Leu-Ala- Tyr-Trp-Ala-Arg, 20 µM, final) and monitoring initial linear rate of increase in fluorescence. IC50s were calculated using the following equation, Y=Y0+YM−Y0/1+10^(log[I]0−logIC50)×HS . Y is the ratio of residual enzyme activity in the presence of NSGM to that in its absence, Y0 and YM are the minimal and maximal values of Y, respectively, obtained following regression, and HS is the Hill slope of inhibition.

[3] = NSGM 100 µM, MMP-8 10 nM, pH 7.5, 37 °C

T2 sequence (P22894 101-467): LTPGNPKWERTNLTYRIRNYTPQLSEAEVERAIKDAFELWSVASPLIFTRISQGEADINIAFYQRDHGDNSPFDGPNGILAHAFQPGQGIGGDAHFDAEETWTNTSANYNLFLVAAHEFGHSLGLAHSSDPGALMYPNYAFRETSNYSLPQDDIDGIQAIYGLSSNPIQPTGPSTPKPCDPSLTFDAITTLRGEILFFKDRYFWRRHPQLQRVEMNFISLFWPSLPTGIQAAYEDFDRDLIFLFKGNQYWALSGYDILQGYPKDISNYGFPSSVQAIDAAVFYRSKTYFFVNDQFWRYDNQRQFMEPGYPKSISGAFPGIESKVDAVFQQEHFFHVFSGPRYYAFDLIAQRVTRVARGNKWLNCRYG
T1 sequence (P14780 107-444 limits assumed): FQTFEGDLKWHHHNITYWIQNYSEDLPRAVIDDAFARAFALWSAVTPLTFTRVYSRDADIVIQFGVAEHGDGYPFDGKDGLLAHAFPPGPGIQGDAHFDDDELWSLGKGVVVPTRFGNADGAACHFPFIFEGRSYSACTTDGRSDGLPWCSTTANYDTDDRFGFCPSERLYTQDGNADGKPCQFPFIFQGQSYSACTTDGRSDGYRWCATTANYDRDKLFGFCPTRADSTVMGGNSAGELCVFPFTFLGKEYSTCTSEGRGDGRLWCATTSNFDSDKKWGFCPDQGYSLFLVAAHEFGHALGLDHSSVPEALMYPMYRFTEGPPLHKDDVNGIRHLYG

inhibition at 100 µM [1]	MMP-8 inhibition in library screen (result in words) [2, 3]	MMP-8 inhibition in library screen [2, 3]	IC50 [2]	ΔY (efficacy of MMP-8 inhibition) [2]	SMILES
> 80%	did not inhibit MMP-8				CCOC(=O)c1c(C)oc2cc(OCC3CCCCC3)c(OCc3oc4cc(OCC5CCCCC5)c(OS(=O)(=O)O)cc4c3C(=O)OCC)cc12 [NSGM 29]
		> 80%	25 ± 1 µM	100 ± 2%	O=c1c2ccccc2nc(-c2ccc(OS(=O)(=O)O)cc2)n1CCCCCCCCCn1cc(Cn2c(-c3ccc(OS(=O)(=O)O)cc3)nc3ccccc3c2=O)nn1 [NSGM 40]
		> 80%	15 ± 1 µM	97 ± 2%	O=c1c2ccccc2nc(-c2ccc(OS(=O)(=O)O)cc2)n1CCCCCCCCCCn1cc(Cn2c(-c3ccc(OS(=O)(=O)O)cc3)nc3ccccc3c2=O)nn1 [NSGM 41]
		> 80%	34 ± 4 µM	98 ± 8%	O=c1c2ccccc2nc(-c2ccc(OS(=O)(=O)O)cc2)n1CCCCCCCCCCCCn1cc(Cn2c(-c3ccc(OS(=O)(=O)O)cc3)nc3ccccc3c2=O)nn1 [NSGM 42]
